Our source for the IC50, AUC and Activity values is ChEMBL document CHEMBL5154884, “Discovery of a Novel Src Homology-2 Domain Containing Protein Tyrosine Phosphatase-2 (SHP2) and Cyclin-Dependent Kinase 4 (CDK4) Dual Inhibitor for the Treatment of Triple-Negative Breast Cancer” (J Med Chem, 2022).

Activity calls are given as the source filed them. The calls are words filed in the database; no cut-off is given here.

Data set [1] has as its target Cyclin-dependent kinase 7/ cyclin H (Homo sapiens, UniProt P50613). Description: Inhibition of CDK7/Cyclin H (unknown origin) incubated for 20 mins followed by [33P]gamma-ATP addition and measured after 2 hrs by radiometric HotSpot Kinase assay. The format is protein-complex assay.
A short description of data set [2]: AUC in ICR mouse at 10 mg/kg, po measured upto 24 hrs by LC-MS/MS analysis. The format is ADME, organism-based. Also on record: time < 24 hrs, dose 10 mg/kg, route po. To be noted: in vivo.
The test system of a further data set is EMT6. Description: Antitumor activity against mouse EMT6 cells implanted in BALB/c mouse syngenic model assessed as increase in infiltration of CD8 positive T cells into tumors at 20 to 40 mg/kg, po qd measured after 18 days by immunohistochemical analysis. To be noted: dose 20-40 mg/kg, time 18.0 day. The format is functional, organism-based.
The next data set relates to MDA-MB-231. Description: Induction of apoptosis in human MDA-MB-231 cells assessed as necrotic cells at 1 uM measured after 48 hrs by Annexin V-FITC/PI staining based flow cytometric analysis (reference value: 0.58%). The format is functional.

Chain of Cyclin-dependent kinase 7/ cyclin H (P51946 whole entry): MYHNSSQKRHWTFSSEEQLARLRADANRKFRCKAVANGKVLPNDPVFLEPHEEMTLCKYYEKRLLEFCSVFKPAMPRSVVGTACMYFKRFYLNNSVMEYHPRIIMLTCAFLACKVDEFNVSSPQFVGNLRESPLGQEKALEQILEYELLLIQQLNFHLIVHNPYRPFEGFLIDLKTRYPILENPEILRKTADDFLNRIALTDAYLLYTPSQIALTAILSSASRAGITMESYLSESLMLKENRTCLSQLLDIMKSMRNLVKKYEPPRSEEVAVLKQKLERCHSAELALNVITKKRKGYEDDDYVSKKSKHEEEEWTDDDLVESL
Chain of Cyclin-dependent kinase 7/ cyclin H (P50613 whole entry): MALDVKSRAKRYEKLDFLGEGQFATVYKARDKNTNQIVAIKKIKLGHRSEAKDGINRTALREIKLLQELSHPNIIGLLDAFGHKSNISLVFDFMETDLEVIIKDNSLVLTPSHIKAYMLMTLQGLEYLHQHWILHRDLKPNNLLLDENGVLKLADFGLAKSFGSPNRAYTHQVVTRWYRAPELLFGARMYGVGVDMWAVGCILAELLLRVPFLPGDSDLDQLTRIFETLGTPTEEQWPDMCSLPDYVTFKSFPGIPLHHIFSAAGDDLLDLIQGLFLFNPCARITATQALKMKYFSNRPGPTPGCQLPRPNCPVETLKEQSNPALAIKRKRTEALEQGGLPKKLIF

Regarding `Cc1nc2c(F)cc(-c3nc(Nc4nccc(Sc5cnc(N6CCC7(CC6)CO[C@@H](C)[C@H]7N)cn5)c4Cl)ncc3F)cc2n1C(C)C`, the IC50 in data set [1] was 968 nM. Besides, the AUC at 24 h in data set [2] amounted to 5510 ng·h/mL. In addition, in the data set with EMT6, the result was Active. In the data set on MDA-MB-231, the Activity worked out at 1.16%.
